PubChem BioAssay (NCI)
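Growth conditions: 96-well plates. Treatment: test compound, 48 hours, 5 concentrations. Analysis: linear interpolation between bracketing concentrations; unreached endpoints set to highest concentration. At the GI50, growth is halved. The concentration for full growth arrest is given as TGI.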

Columns and labels:
Assay in all cases: growth of human tumour cells (NCI), 48 h
SN12C renal = tested on: SN12C renal
SF-295 CNS = tested on: SF-295 CNS
HOP-62 NSCLC = tested on: HOP-62 NSCLC
KM12 colon = tested on: KM12 colon
NCI-H23 lung = tested on: NCI-H23 lung
M19-MEL melanoma = tested on: M19-MEL melanoma
DLD-1 colon = tested on: DLD-1 colon
KM20L2 colon = tested on: KM20L2 colon
NCI/ADR-RES ovarian = tested on: NCI/ADR-RES ovarian
T-47D breast = tested on: T-47D breast

Compound | TGI (SN12C renal) | TGI (SF-295 CNS) | TGI (HOP-62 NSCLC) | TGI (KM12 colon) | TGI (NCI-H23 lung) | TGI (M19-MEL melanoma) | TGI (DLD-1 colon) | TGI (KM20L2 colon) | GI50 (SN12C renal) | GI50 (SF-295 CNS) | GI50 (HOP-62 NSCLC) | GI50 (KM12 colon) | GI50 (KM20L2 colon) | GI50 (NCI-H23 lung) | GI50 (M19-MEL melanoma) | GI50 (DLD-1 colon) | GI50 (NCI/ADR-RES ovarian) | TGI (NCI/ADR-RES ovarian) | GI50 (T-47D breast) | TGI (T-47D breast)
C=C(C#N)C1OCC2OC(C)(C)OC21 (stereo not given) | 38.2 µM | > 100 µM | > 100 µM | > 100 µM | 34.8 µM | 61.8 µM | 34.4 µM |  |  |  |  |  |  |  |  |  |  |  |  | 
CC(=O)OC1CCn2nnc(CO)c21 (stereo not given) | > 100 µM | > 100 µM |  | > 100 µM | > 100 µM | > 100 µM | > 100 µM | > 100 µM |  |  |  |  |  |  |  |  |  |  |  | 
CN1CC(=O)N(C)c2ncn(Cc3ccccc3)c2C1=O | > 100 µM | > 100 µM |  | > 100 µM | > 100 µM | > 100 µM | > 100 µM |  |  |  |  |  |  |  |  |  |  |  |  | 
CC(C)[O-].CC(C)[O-].O=C1C=C([O-])C(=O)c2ccccc21.O=C1C=C([O-])C(=O)c2ccccc21.[Ti+4] | > 100 µM | > 100 µM | > 100 µM | > 100 µM | > 79.3 µM | > 100 µM | > 100 µM | > 100 µM | > 100 µM | 28.1 µM | > 100 µM | > 81.4 µM | 44.1 µM | 3.94 µM | 4.42 µM | > 100 µM |  |  |  | 
Cc1ccc(NC2=C(Cl)C(=O)N(Cc3ccc(Cl)cc3)C2=O)cc1O | 30.5 µM | 19.8 µM | 26.4 µM | 39.6 µM | 23.7 µM |  |  |  | 13.3 µM | 4.04 µM | 9.99 µM | 13.8 µM |  | 5.56 µM |  |  | 9.24 µM | 37.8 µM | 10.7 µM | 42.6 µM
O=C(O)NC(c1ccccc1)C(NC(=O)c1ccccc1)c1ccccc1 (stereo not given) | > 100 µM | > 100 µM | > 100 µM | > 100 µM | > 100 µM | > 100 µM | > 100 µM | > 100 µM |  |  |  |  |  |  |  |  |  |  |  | 
O=C(O)Cc1cc(=O)[nH]c2c1/C(=N/O)CCC2 | > 100 µM | > 100 µM |  | > 100 µM | > 100 µM |  | > 100 µM |  |  |  |  |  |  |  |  |  |  |  |  | 
C[C@]12CCC(=O)C(O)=C1CC[C@@H]1C2CC[C@]2(C)NC(=O)CCC12 (stereo not given in full) | > 100 µM | > 100 µM | > 100 µM | > 100 µM | > 100 µM | > 100 µM |  | > 100 µM |  |  |  |  |  |  |  |  |  |  |  | 
CC(=O)[CH-]C(=O)c1ccccc1.CC(=O)[CH-]C(=O)c1ccccc1.CC(C)CCCC(C)[C@H]1CCC2[C@@H]3CC=C4C[C@@H]([O-])CC[C@]4(C)C3CC[C@@]21C.CC(C)CCCC(C)[C@H]1CCC2[C@@H]3CC=C4C[C@@H]([O-])CC[C@]4(C)C3CC[C@@]21C.[Ti+4] (stereo not given in full) | > 100 µM |  | > 100 µM |  | > 100 µM |  | > 100 µM | > 100 µM | > 100 µM |  | > 100 µM |  | > 100 µM | > 100 µM |  | > 100 µM |  |  |  | 
COc1ccc(C(=O)C(C(=O)CC(=O)Nc2cccc(C(F)(F)F)c2)c2ccc(OC)cc2)cc1 (stereo not given) | > 100 µM | > 100 µM | > 100 µM | > 100 µM | > 100 µM | > 100 µM | > 100 µM | > 100 µM |  |  |  |  |  |  |  |  |  |  |  | 
O=C(Nc1ccc(Cl)cc1Cl)C1C(=O)C(=O)N(c2ccc(Cl)cc2Cl)C1=O (stereo not given) | > 100 µM |  | > 100 µM | > 100 µM | > 100 µM | > 100 µM | > 100 µM | > 100 µM |  |  |  |  |  |  |  |  |  |  |  | 
